In ChEMBL document CHEMBL3044691, “The stability and degradation of a new biological pesticide, pyoluteorin” (Pest Manag Sci, 2010):

How the values were obtained:
Assay type in all cases: physicochemical
[1] = Half life under fluorescent lamp light at room temperature
[2] = Half life in phosphate buffer at pH 5.8 under dark condition
[3] = Half life in phosphate buffer at pH 6.2 under dark condition
[4] = Half life in water solution at 70 degC under dark condition
[5] = Half life in phosphate buffer at pH 7.8 at room temperature under sunlight
[6] = Half life in water solution at 37 degC under dark condition
[7] = Half life under sunlight at room temperature
[8] = Half life in phosphate buffer at pH 7.4 under dark condition
[9] = Half life in water solution at 28 degC under dark condition
[10] = Half life in phosphate buffer at pH 7 at room temperature under sunlight
[11] = Half life in water solution at 121.5 mg/l initial concentration under dark condition
[12] = Half life under dark condition at room temperature
[13] = Half life in phosphate buffer at pH 6.6 under dark condition
[14] = Half life in water solution at 54 degC under dark condition
[15] = Half life in phosphate buffer at pH 7.4 at room temperature under sunlight
[16] = Half life under high-pressure mercury lamp light at room temperature
[17] = Half life in water solution at 626.5 mg/l initial concentration under dark condition
[18] = Half life in water solution at 375 mg/l initial concentration under dark condition
[19] = Half life in phosphate buffer at pH 7 under dark condition
[20] = Half life under incandescent lamp light at room temperature
[21] = Half life in water solution at 248.5 mg/l initial concentration under dark condition
[22] = Half life in phosphate buffer at pH 6.6 at room temperature under sunlight
[23] = Half life in phosphate buffer at pH 5.8 at room temperature under sunlight
[24] = Half life in phosphate buffer at pH 7.8 under dark condition
[25] = Half life in phosphate buffer at pH 6.2 at room temperature under sunlight
[26] = Half life in water solution at 502.5 mg/l initial concentration under dark condition

O=C(c1cc(Cl)c(Cl)[nH]1)c1c(O)cccc1O [PYOLUTEORIN]
half-life [1]: 23.2 days | half-life [2]: 34.8 days | half-life [3]: 42 days | half-life [4]: 18.8 days | half-life [5]: 0.42 days | half-life [6]: 26.5 days | half-life [7]: 3.5 days | half-life [8]: 32.8 days | half-life [9]: 30 days | half-life [10]: 0.69 days | half-life at 121.5 mg/l [11]: 26.5 days | half-life [12]: 24.9 days | half-life [13]: 50.2 days | half-life [14]: 22 days | half-life [15]: 0.58 days | half-life [16]: 3.1 days | half-life at 626.5 mg/l [17]: 51.7 days | half-life at 375 mg/l [18]: 37.7 days | half-life [19]: 54.1 days | half-life [20]: 23.5 days | half-life at 248.5 mg/l [21]: 31.1 days | half-life [22]: 0.92 days | half-life [23]: 1.77 days | half-life [24]: 23.9 days | half-life [25]: 1.29 days | half-life at 502.5 mg/l [26]: 44.4 days
